Test results: the supplement of paper PMC10307832

How the values were obtained:
Assay in all cases: relative viability (nuclei count vs DMSO), 5 days (fraction); higher = more cells survive
AZD8055 = compound: COc1ccc(-c2ccc3c(N4CCOC[C@@H]4C)nc(N4CCOC[C@@H]4C)nc3n2)cc1CO [AZD8055]
In short: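 Five library-drug doses spaced by √10 were pinned onto vehicle-anchored 1536-well plates of lung cancer cell lines that had been kept overnight at 37 °C. Cells went 5 days without medium change, then were fixed, permeabilised and Hoechst-stained together, imaged at 4× and counted by MetaXpress. Viability is the ratio of treated-well to vehicle-well nuclei, taken as a median over plates. Plates required control CV below 25% and at least one doubling.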

AZD8055 + Tozasertib = compound: COc1ccc(-c2ccc3c(N4CCOC[C@@H]4C)nc(N4CCOC[C@@H]4C)nc3n2)cc1CO [AZD8055] + Cc1cc(Nc2cc(N3CCN(C)CC3)nc(Sc3ccc(NC(=O)C4CC4)cc3)n2)n[nH]1 [Tozasertib] (partner 0.1 µM)
In short: (§1)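 Lung cancer cell lines were pin-tool dosed in 1536-well plates on the day after seeding, with either a lone drug or a fixed anchor-drug dose plus five library-drug doses (not always all listed) in √10 steps. Nuclei were counted on 4× images after 5 days. Relative viability is the ratio of treated-well to vehicle-well nuclei counts, with each value a median of duplicate plates.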

AZD8055 + Trametinib = compound: COc1ccc(-c2ccc3c(N4CCOC[C@@H]4C)nc(N4CCOC[C@@H]4C)nc3n2)cc1CO [AZD8055] + CC(=O)Nc1cccc(-n2c(=O)n(C3CC3)c(=O)c3c(Nc4ccc(I)cc4F)n(C)c(=O)c(C)c32)c1 [Trametinib] (partner 0.02 µM)
In short: as §1

AZD8055 + AZD7762 = compound: COc1ccc(-c2ccc3c(N4CCOC[C@@H]4C)nc(N4CCOC[C@@H]4C)nc3n2)cc1CO [AZD8055] + NC(=O)Nc1cc(-c2cccc(F)c2)sc1C(=O)N[C@H]1CCCNC1 [AZD7762] (partner 0.2 µM)
In short: as §1

| Cell Line | relative viability (AZD8055; 0.01 µM) | relative viability (AZD8055; 0.03162 µM) | relative viability (AZD8055; 0.1 µM) | relative viability (AZD8055; 0.3162 µM) | relative viability (AZD8055; 1 µM) | relative viability (AZD8055 + Tozasertib; first compound 0.01 µM) | relative viability (AZD8055 + Tozasertib; first compound 0.03162 µM) | relative viability (AZD8055 + Tozasertib; first compound 0.1 µM) | relative viability (AZD8055 + Tozasertib; first compound 0.3162 µM) | relative viability (AZD8055 + Tozasertib; first compound 1 µM) | relative viability (AZD8055 + Trametinib; first compound 0.01 µM) | relative viability (AZD8055 + Trametinib; first compound 0.03162 µM) | relative viability (AZD8055 + Trametinib; first compound 0.1 µM) | relative viability (AZD8055 + Trametinib; first compound 0.3162 µM) | relative viability (AZD8055 + Trametinib; first compound 1 µM) | relative viability (AZD8055 + AZD7762; first compound 0.01 µM) | relative viability (AZD8055 + AZD7762; first compound 0.03162 µM) | relative viability (AZD8055 + AZD7762; first compound 0.1 µM) | relative viability (AZD8055 + AZD7762; first compound 0.3162 µM) | relative viability (AZD8055 + AZD7762; first compound 1 µM) |
| --- | --- | --- | --- | --- | --- | --- | --- | --- | --- | --- | --- | --- | --- | --- | --- | --- | --- | --- | --- | --- |
| NCI-H1755 | 1.02 | 0.841 | 0.825 | 0.537 | 0.569 | 0.551 | 0.555 | 0.449 | 0.429 | 0.437 | 0.729 | 0.673 | 0.615 | 0.404 | 0.385 | 0.625 | 0.401 | 0.416 | 0.364 | 0.33 |
| NCI-H2087 | 1.14 | 0.908 | 0.936 | 0.458 | 0.349 | 0.276 | 0.242 | 0.2 | 0.189 | 0.162 | 0.248 | 0.166 | 0.169 | 0.153 | 0.116 | 1.37 | 1.36 | 1.33 | 0.654 | 0.478 |
| NCI-H2228 | 1.29 | 0.757 | 0.378 | 0.201 | 0.213 | 0.222 | 0.296 | 0.155 | 0.143 | 0.158 | 0.507 | 0.314 | 0.211 | 0.159 | 0.199 |  |  |  |  |  |
| NCI-H727 | 1.17 | 0.953 | 0.695 | 0.544 | 0.412 | 0.849 | 0.77 | 0.499 | 0.414 | 0.487 | 0.352 | 0.399 | 0.368 | 0.37 | 0.458 | 0.727 | 0.574 | 0.528 | 0.434 | 0.338 |
| NCI-H650 | 0.984 | 0.809 | 0.738 | 0.427 | 0.303 | 0.817 | 0.711 | 0.601 | 0.381 | 0.333 | 1.13 | 1.09 | 0.888 | 0.469 | 0.353 | 0.84 | 0.875 | 1.02 | 0.667 | 0.323 |
| NCI-H520 | 0.904 | 0.441 | 0.373 | 0.19 | 0.178 | 0.381 | 0.305 | 0.213 | 0.251 | 0.192 | 0.581 | 0.246 | 0.267 | 0.109 | 0.137 |  |  |  |  |  |
| EBC-1 | 1.11 | 0.828 | 0.609 | 0.244 | 0.205 |  |  |  |  |  |  |  |  |  |  |  |  |  |  |  |
| NCI-H661 | 1.03 | 0.992 | 0.842 | 0.521 | 0.537 | 0.329 | 0.376 | 0.376 | 0.356 | 0.359 | 0.518 | 0.426 | 0.451 | 0.31 | 0.325 |  |  |  |  |  |
| NCI-H1299 | 1.04 | 1.06 | 1.04 | 0.807 | 0.415 |  |  |  |  |  |  |  |  |  |  |  |  |  |  |  |
| SK-LU-1 | 1.05 | 0.82 | 0.628 | 0.388 | 0.366 | 0.311 | 0.333 | 0.287 | 0.217 | 0.213 | 0.579 | 0.447 | 0.358 | 0.284 | 0.3 |  |  |  |  |  |
| COR-L23 | 1.35 | 0.921 | 0.862 | 0.28 | 0.207 | 0.278 | 0.295 | 0.228 | 0.15 | 0.154 | 0.512 | 0.528 | 0.334 | 0.127 | 0.157 |  |  |  |  |  |
| NCI-H1650 | 0.923 | 1 | 0.802 | 0.498 | 0.419 | 0.366 | 0.446 | 0.422 | 0.534 | 0.252 | 0.724 | 0.544 | 0.502 | 0.394 | 0.261 |  |  |  |  |  |
| IA-LM | 0.98 | 0.651 | 0.241 | 0.103 | 0.116 |  |  |  |  |  |  |  |  |  |  |  |  |  |  |  |
| NCI-H2009 | 1.03 | 0.918 | 0.924 | 0.501 | 0.344 | 0.763 | 0.735 | 0.723 | 0.535 | 0.279 | 0.249 | 0.248 | 0.205 | 0.14 | 0.141 |  |  |  |  |  |
| NCI-H1563 | 0.844 | 0.791 | 0.719 | 0.604 | 0.684 |  |  |  |  |  |  |  |  |  |  |  |  |  |  |  |
| SK-MES-1 | 0.967 | 0.892 | 0.809 | 0.408 | 0.289 | 0.904 | 0.837 | 0.625 | 0.434 | 0.274 | 0.462 | 0.543 | 0.354 | 0.313 | 0.303 |  |  |  |  |  |
| UMC-11 | 0.942 | 0.711 | 0.607 | 0.345 | 0.322 | 0.196 | 0.224 | 0.208 | 0.2 | 0.211 | 0.77 | 0.489 | 0.453 | 0.319 | 0.253 |  |  |  |  |  |
| ABC-1 | 0.948 | 1.08 | 0.757 | 0.332 | 0.413 | 0.186 | 0.187 | 0.174 | 0.196 | 0.19 |  |  |  |  |  | 0.879 | 0.766 | 1.02 | 0.406 | 0.495 |
| SW 1573 | 1.05 | 0.751 | 0.704 | 0.326 | 0.203 | 0.174 | 0.229 | 0.241 | 0.155 | 0.135 | 0.559 | 0.518 | 0.379 | 0.193 | 0.15 |  |  |  |  |  |
| NCI-H1792 | 0.951 | 0.612 | 0.325 | 0.171 | 0.216 |  |  |  |  |  | 0.511 | 0.273 | 0.227 | 0.0933 | 0.0673 | 0.589 | 0.291 | 0.21 | 0.0685 | 0.0707 |
| NCI-H2023 | 0.901 | 0.618 | 0.362 | 0.163 | 0.153 | 0.314 | 0.325 | 0.258 | 0.115 | 0.109 | 0.454 | 0.43 | 0.187 | 0.152 | 0.122 |  |  |  |  |  |
| COR-L 105 | 1.04 | 0.947 | 0.64 | 0.378 | 0.435 | 0.326 | 0.354 | 0.304 | 0.282 | 0.27 | 0.416 | 0.412 | 0.44 | 0.404 | 0.416 |  |  |  |  |  |
